According to patent publication US20090317842A1, “Methods and Tools for The Therapy of Neurodegenerative Pathologies” (EXONHIT THERAPEUTICS SA, priority 2006, published 2009):

How the values were obtained:
[1] = system: sAPPalpha; assay: sAPPalpha production in HEK293 cells over-expressing human APP (ELISA and Western blot); type: cell-based; details: HEK293 cells stably over-expressing human APP; variable concentrations; 24 hours; FIG. 5
Protocol: HEK293 cells transfected in a stable manner over-expressing human APP were kept in Modified Eagle medium containing Earle salt and supplemented by 10% fetal calf serum (FCS), 2 mM L-glutamine (Sigma, Lyon, France), 1× Nonessential Amino Acids and antibiotics. The cells were treated for 48 hours after spreading variable concentrations of the molecules indicated on 10-cm plates, or with DMSO as a carrier, for 24 hours. The sAPPalpha had been measured by ELISA and Western blot by means of commercially available antibodies.

[2] = system: cortical neurons; assay: Neuroprotection against Aβ25-35 amyloid peptide toxicity in neuronal cultures (MTT test); type: cell-based, Wistar rat; details: Aβ25-35 33.5 μM
Protocol: Aβ25-35 peptide contains the neurotoxic fragment of the amyloid peptide and is a tool classically used to study the neuroprotective effects of compounds. At the beginning of each experiment, the neuronal cultures aged 7-10 days are changed with fresh culture medium and treated with the etazolate inhibitor compound, six hours before the addition of Aβ25-35 amyloid peptide at a concentration of 33.5 μM In a classical and reproducible manner, this concentration generates 30% to 40% toxicity in neuronal cultures. Several experiments are undertaken to characterize the neuroprotective effect of etazolate. […] In order to determine whether it is the inhibition of sAPPalpha or its production that provides the neuroprotective effect of etazolate against amyloid peptide, a neutralizing anti-sAPPα antibody (3E9 antibody) and alpha secretase inhibitors are respectively used. For the neutralization of sAPPα, 3E9 antibody (5 μg/ml) is added to the cortical cells at the same time as the etazolate. Two alpha secretase inhibitors, the compound Furin Inhibitor […], Sohn J H, Lee […], Mook-Jung I. Furin is an endogenous regulator of alpha-secretase associated APP processing. Biochem Biophys Res Commun. 2006 Oct. 20; 349(2):654-9.) and TAPI (Slack […]. […] Biochem J. 2001 Aug. 1; 357(Pt 3):787-94) are used in pretreatment one hour before the addition of the etazolate. All the treatments are effected at least twice and in at least two different cultures. After an incubation of 48 hours, the toxicity is measured by an MTT test. The results, normalized to the untreated mean, are statistically analyzed by the Wilcoxon test. The significant value is determined at p less than or equal to 0.05. The toxicity is measured by using the MTT test. After incubation with the compounds, MTT is added at a final concentration of 0.5 mg/mL by wells. The plates are then incubated for 30 minutes at 37° C. at night. The medium is drawn off and the crystals are resuspended in 500 μL of DMSO (dimethylsulfoxide). The absorbance at 550 nm is read and the viability percentage is calculated.

[3] = system: sAPPalpha; assay: sAPPalpha production in vivo in guinea pig brain (ELISA); details: 10 mg/kg per os once a day for 15 days; guinea pig cortices; versus excipient; p<1E-4; FIG. 7
Protocol: The production of sAPPalpha was studied in vivo in the guinea pig, a physiological model for APP processing in the brain. The etazolate or the excipient (physiological saline solution) was administered to male Hartley albino guinea pigs, weighing 250-270 g at the beginning of the experiment, once a day for 15 consecutive days, per os in a dose of 10 mg/kg. One h after the last administration, the guinea pigs were sacrificed and the brains immediately extracted, frozen in nitrogen and stored at −80° C. The cortices were homogenized at 4° C. in a pH 7.5 20 mM Tris base solution containing 0.2% Triton X-100, 50 μg/mL, gentamicin and a protease inhibitor cocktail. The soluble sAPPalpha was measured by an ELISA test and the results normalized with regard to the quantity of proteins present in the extracts.

[4] = system: sAPPalpha; assay: sAPPalpha production by cortical neurons (Western blot); type: cell-based, Wistar rat; details: 0.2 and 2 μM for 24 h; Western blot densitometry; versus non-treated cultures; FIG. 6
Protocol: The production of sAPPalpha was measured in cortical neurons isolated from 17-day-old Wistar rat embryos. The cells are obtained from cortical structures that are dissected into a solution containing 0.25% trypsin. The dissociated cells are seeded at a density of 500,000 per cm^2 in a Neurobasal medium containing additives (1×B27, 2 mM L-glutamine, 0.6% glucose, antibiotics and antimycotics, as well as 2% horse serum) in culture dishes coated with 6 μg/mL, of polyornithine. The cells are kept at 37° C. and 5% CO2. 24 hours after seeding, the cells are treated with 5 μM AraC (5 cytosine arabinofuranoside) as an antimitotic agent. After 4 days in vitro, half the medium is exchanged for medium without horse serum and the culture is kept for maturation in this medium for 7 to 10 days. The sAPPalpha was measured by Western blot by means of antibodies available commercially after one change of medium and accumulation in fresh medium for 24 hours. Quantification was done by densitometric analyses of scanned autoradiographic images. […] The results presented are the mean±SEM of three independent experiments performed in duplicate and are expressed the form of percentage of the control (non-treated cultures).

Row | Compound | sAPPalpha secretion [1] | cellular viability ([2]; 0.2 μM etazolate, 48 hours, FIG. 8) | protector effect on neuronal death induced by Aβ25-35 ([2]; co-treatment of neurons, 48 hours, FIG. 8) | quantity of sAPPalpha measured in the brains [3] | salting out of sAPPalpha from cortical neurons [4] | effect on the neuroprotection induced by etazolate ([2]; agent added before or with etazolate, cortical neurons, FIGS. 8-10)
1 | CCOC(=O)c1cnc2c(cnn2CC)c1NN=C(C)C [etazolate] | induces sAPPalpha secretion | 90% | dose-dependent protector effect | increase by a factor of three | stimulates the salting out of sAPPalpha | 
2 | TAPI [reference compound] |  |  |  |  |  | inhibited
